Biological target: T1, CCR-3 (Homo sapiens, UniProt P51677)
T1 sequence (P51677 1-355): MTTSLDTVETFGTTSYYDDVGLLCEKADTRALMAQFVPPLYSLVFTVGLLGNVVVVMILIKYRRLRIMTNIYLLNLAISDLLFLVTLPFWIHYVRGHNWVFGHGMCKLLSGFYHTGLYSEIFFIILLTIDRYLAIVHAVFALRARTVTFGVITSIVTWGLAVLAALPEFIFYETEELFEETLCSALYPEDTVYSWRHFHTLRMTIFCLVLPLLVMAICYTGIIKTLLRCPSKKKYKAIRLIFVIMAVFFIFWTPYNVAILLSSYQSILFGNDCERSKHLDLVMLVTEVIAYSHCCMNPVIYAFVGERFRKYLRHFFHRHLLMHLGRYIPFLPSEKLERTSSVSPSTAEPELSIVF
Assay: Inhibition of eotaxin-induced chemotaxis of CCR-3 transfectant cells (CCR3/U937)
Type: cell-based
Design: expressed in transfected cells; host or cells: U937
Conditions: eotaxin 1×10^−9 M; for Chemotaxis Assay 10 μM (inhibition %): compound 10 μM; for inhibition at 10 µM: U-937, compound 10 μM
Procedure: The inhibitory activity of the compounds against eotaxin-induced chemotaxis was determined by measuring the inhibition of migration of CCR-3 transfectant cells (CCR3/U937), using a minor modification of the method described by Ohashi, H. et al., Int Arch Allergy Immunol. (1999) 118, 44-50. CCR-3 transfectant cells were grown in PRMI1640 medium containing 10% fetal calf serum (FCS) and Geneticin 418 (0.8 mg/ml). For the assay, CCR-3 transfectant cells were isolated and resuspended at 1×10^7 cells/ml in assay medium (RPMI 1640 medium containing 0.1% bovine serum albumin (BSA)). The chemotaxis assay was performed in a 24-well culture plate. Human eotaxin suspended in assay medium was added to the wells at 1×10^−9 M along with test compounds at various concentrations. For a positive control, eotaxin was added to the wells without a test compound, and for a negative control, neither eotaxin nor a test compound was added to the walls. Chemotaxicell (Kurabo Co., Ltd.) having 5 micrometers pore size were inserted into each well and 100 micro liters of CCR-3 transfectant cells suspension were added to the top chamber. The plates were incubated at 37° C. for 1 hour. After incubation, migrated cells in lower wells were diluted and counted by particle size distribution analyzer (CDP-500, Sysmex Co., Ltd.)

Compound	Chemotaxis Assay 10 μM (inhibition %) (Table 3a)	other results
CCN(CCNC(=O)Nc1ccc([N+](=O)[O-])cc1)CCc1ccc(Cl)cc1 [Compound 4]	59%	
CCN(CCCNC(=O)Nc1ccc(Cl)cc1)CCc1ccc(Cl)cc1 [Compound 6]	100%	
CCN(CCCNC(=O)Nc1ccccc1OC)CCc1ccc(Cl)cc1 [Compound 9]	100%	
COc1ccc(CN(CCCNC(=O)Nc2ccccc2)CCc2ccc(Cl)cc2)cc1 [Compound 18]	58%	
O=C(NCCCN(CCc1ccc(Cl)cc1)Cc1cccnc1)Nc1ccccc1 [Compound 23]	82%	
O=C(NCCCN(CCc1ccccc1)CCc1ccc(Cl)cc1)Nc1ccccc1 [Compound 25]	88%	
CN(CCCNC(=O)Nc1ccccc1)CCc1ccc(Cl)cc1 [Compound 27]	97%	
COC(=O)CCCN(CCCNC(=O)Nc1ccc(Br)cc1)Cc1cccs1 [Compound 39]	78%	
COC(=O)CCCN(CCCNC(=O)Nc1ccc(Br)cc1)CCc1ccc(OC)c(OC)c1 [Compound 43]	50%	
COC(=O)CCCN(CCNC(=O)Nc1ccc(Br)cc1)C1CCCc2ccccc21 (centres unmarked) [Compound 50]	54%	
O=C(O)CCCN(CCNC(=O)Nc1ccc(Br)cc1)C1CCCc2ccccc21 (centres unmarked) [Compound 81]	58%	
CCN(CCc1ccc(Cl)cc1)CC(O)CNC(=O)Nc1ccccc1 (centres unmarked) [Compound 163, N-phenylcarbamoyl-N′-[2-(4-chlorophenyl)ethyl]-N′-ethyl 2-hydroxy-1,3-diaminopropane]		inhibition at 10 µM (Table 3a): 96%
O=C(O)CCCN(CCCNC(=S)Nc1ccc(Cl)cc1)C1CCCc2ccccc21 (centres unmarked) [Compound 164, 4-[[3-(4-chlorophenylthioureido)propyl](1,2,3,4-tetrahydro-1-naphthyl)amino]butanoic acid]		inhibition at 10 µM (Table 3a): 100%
CC(C)(C)OC(=O)[C@H](CCN(CCCC(=O)O)C1CCCc2ccccc21)NC(=O)Nc1ccc(Br)cc1 (stereo partly drawn) [Compound 165, 4[[(3S)-3-(4-bromophenylureido)-3-(tert-butoxycarbonyl)propyl](1,2,3,4-tetrahydro-1-naphthyl)amino]butanoic acid]		inhibition at 10 µM (Table 3a): 100%
CC(C)(C)OC(=O)[C@H](CCN(CCCC(=O)O)C1CCCc2ccccc21)NC(=O)Nc1ccc(Br)cc1 (stereo partly drawn) [Compound 166, 4[[(3S)-3-(4-bromophenylureido)-3-(tert-butoxycarbonyl)propyl](1,2,3,4-tetrahydro-1-naphthyl)amino]butanoic acid]	100%	
O=C(O)CCCN(CC(O)CNC(=O)Nc1ccc(Br)cc1)C1CCCc2ccccc21 (centres unmarked) [Compound 167, 4-[[3-(4-bromophenylureido)-2-hydroxypropyl](1,2,3,4-tetrahydro-1-naphthyl)amino]butanoic acid]		inhibition at 10 µM (Table 3a): 100%
O=C(O)CCCN(CCCNC(=O)Nc1ccc(Br)cc1)C1CCc2ccccc21 (centres unmarked) [Compound 173, 4-[[3-(4-Bromophenylureido)propyl](1-indanyl)amino]butanoic acid]		inhibition at 10 µM (Table 3a): 100%
CCCCOC(=O)c1ccc(NC(=O)NCCCN(CCCC(=O)O)C2CCCc3ccccc32)cc1 (centres unmarked) [Compound 237]	100%	
O=C(O)CCCN(CCCNC(=S)Nc1ccc(Br)cc1)C1CCCc2ccccc21 (centres unmarked) [Compound 246]	100%	
O=C(O)CCCN(CCCNC(=S)Nc1cccc(Br)c1)C1CCCc2ccccc21 (centres unmarked) [Compound 247]	99%	
O=C(O)CCCN(CCCNC(=S)Nc1cccc(Cl)c1)C1CCCc2ccccc21 (centres unmarked) [Compound 248]	100%	
CC(C)NC(=O)[C@H](CCN(CCCC(=O)O)C1CCCc2ccccc21)NC(=O)Nc1ccc(Br)cc1 (stereo partly drawn) [Compound 284, 4-[[(3S)-3-(4-Bromophenylureido)-3-(isopropylcarbamoyl)propyl](1,2,3,4-tetrahydro-1-naphthy1)amino]butanoic acid]	95%	
CC(C)NC(=O)[C@H](CCN(CCCC(=O)O)C1CCCc2ccccc21)NC(=O)Nc1ccc(Br)cc1 (stereo partly drawn) [Compound 286, 4-[[(3S)-3-(4-Bromophenylureido)-3-(isopropylcarbamoyl)propyl](1,2,3,4-tetrahydro-1-naphthyl)amino]butanoic acid]		inhibition at 10 µM (Table 3a): 100%
O=C(O)CCCN(CCCNC(=S)Nc1ccc(Br)cc1)[C@@H]1CCc2ccccc21 [Compound 288, 4-[[3(4-Bromophenylthioureido)propyl][(1R)-1-indanyl]amino]butanoic acid]		inhibition at 10 µM (Table 3a): 100%
O=C(O)CCCN(CCCNC(=S)Nc1ccc(Br)cc1)[C@@H]1CCCc2ccccc21 [Compound 290, 4-[[3(4-Bromophenylthioureido)propyl][(1R)-1,2,3,4-tetrahydro-1-naphthyl]amino]butanoic acid]		inhibition at 10 µM (Table 3a): 100%
CC[N+](CC)(CCCNC(=S)Nc1ccc(Br)cc1)CCc1ccc(Cl)cc1.[I-] [Compound 335]		Chemotaxis Assay 10 μM (inhibition %) (Table 3c): 100%
CC[N+](CC)(CCCNC(=S)Nc1ccccc1)CCc1ccc(Cl)cc1.[I-] [Compound 336]		Chemotaxis Assay 10 μM (inhibition %) (Table 3c): 100%

Continued, in another order:

Chemotaxis Assay 10 μM (inhibition %) (Table 3a)	Compound	other results
100%	O=C(O)CCCN(CCCNC(=S)Nc1ccc(I)cc1)C1CCCc2ccccc21 (centres unmarked) [Compound 249]	
99%	Cc1ccc(NC(=S)NCCCN(CCCC(=O)O)C2CCCc3ccccc32)cc1 (centres unmarked) [Compound 250]	
100%	O=C(O)CCCN(CCCNC(=S)Nc1ccc(Cl)c(Cl)c1)C1CCCc2ccccc21 (centres unmarked) [Compound 251]	
100%	COC(=O)CCCN(CCCNC(=S)Nc1ccc(Br)cc1)C1CCCc2ccccc21 (centres unmarked) [Compound 252]	
74%	COC(=O)CCCN(CCCNC(=S)Nc1cccc(Br)c1)C1CCCc2ccccc21 (centres unmarked) [Compound 253]	
100%	COC(=O)CCCN(CCCNC(=S)Nc1ccc(I)cc1)C1CCCc2ccccc21 (centres unmarked) [Compound 255]	
100%	COC(=O)CCCN(CCCNC(=S)Nc1ccc(Cl)c(Cl)c1)C1CCCc2ccccc21 (centres unmarked) [Compound 256]	
100%	O=C(O)CCCN(CCCNC(=S)Nc1ccc(F)cc1)C1CCCc2ccccc21 (centres unmarked) [Compound 257]	
96%	O=C(O)CCCN(CCCNC(=O)Nc1cc(Cl)nc(Cl)c1)C1CCCc2ccccc21 (centres unmarked) [Compound 279]	
100%	COC(=O)CCCN(CC[C@H](NC(=O)Nc1ccc(Br)cc1)C(=O)OC(C)(C)C)C1CCCc2ccccc21 (some centres unmarked) [Compound 281]	
100%	COC(=O)CCCN(CC[C@H](NC(=O)Nc1ccc(Br)cc1)C(=O)NC(C)C)C1CCCc2ccccc21 (stereo partly drawn) [Compound 282, methyl 4-[[(3S)-3-(4-bromophenylureido)-3-(isopropylcarbamoyl)propyl](1,2,3,4-tetrahydro-1-naphthyl)amino]butylate]	
100%	COC(=O)CCCN(CC[C@H](NC(=O)Nc1ccc(Br)cc1)C(=O)NCc1ccccc1)C1CCCc2ccccc21 (stereo partly drawn) [Compound 283, Methyl 4-[[(3S)-3-(4-bromophenylureido)-3-(benzylcarbamoyl)propyl](1,2,3,4-tetrahydro-1-naphthyl)amino]butylate]	
100%	O=C(O)CCCN(CC[C@H](NC(=O)Nc1ccc(Br)cc1)C(=O)NCc1ccccc1)C1CCCc2ccccc21 (stereo partly drawn) [Compound 287, 4-[[(3S)-3-(4-Bromophenylureido)-3-(benzylcarbamoyl)propyl](1,2,3,4-tetrahydro-1-naphthyl)amino]butanoic acid]	
100%	CC(c1ccccc1)N(CCCNC(=S)Nc1ccc(Br)cc1)CCCC(=O)O (centres unmarked) [Compound 289]	

From US6875884B1, “Urea derivatives as inhibitors for CCR-3 receptor” (Kirin Beer Kabushiki Kaisha, priority 1999, dated 2005)
